The results in this text go back to patent US9745339B2 (GRAFFINITY PHARMACEUTICALS GMBH, priority 2012, dated 2017).

In data set [1] the target is T1, Bevacizumab (Homo sapiens, UniProt P01857).
T1 construct: 0.5 mg/ml IgG in PBS pH 7.3; ligand immobilized on SEPHAR; Bevacizumab Yield; other: mass eluted (glycine pH 2.5) / mass injected; kd (dissociation constant, Langmuir isotherm); other: Bevacizumab 0.05-5 mg/ml in PBS pH 7.3, 25° C., at least 3 h; qm (maximum capacity); other: mg Bevacizumab per ml of resin; Langmuir isotherm; t0; fused on or other part: Humanized anti-VEGF-A VH domain joined N-terminally to the IGHG1 constant region (engineered, no UniProt entry)
The data set can be described thus: Microtiter plate chromatography of resins: binding and elution of Bevacizumab. The method, boiled down:
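About 30 μl packed resin columns loaded with 3.3 cv IgG at 0.5 mg ml^−1 in PBS or undiluted HCP, washed with 5 cv PBS, eluted with 5 cv glycine pH 2.5. Protein in fractions by Bradford. Bound fraction = (injected − flowthrough)/injected; yield = eluted/injected; selectivity = Bevacizumab bound fraction / HCP bound fraction, truncated beyond 10.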

The test system of data set [2] is Tocilizumab. The experiment in a line: Microtiter plate chromatography of resins: binding and elution of Tocilizumab. The following applies: fraction of injected protein bound; 0.5 mg/ml IgG in PBS pH 7.3. An outline of the steps:
(§1)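 About 30 μl resin columns loaded with 3.3 cv IgG at 0.5 mg ml^−1 in PBS (or undiluted HCP), washed with 5 cv PBS, eluted with 5 cv glycine pH 2.5. Fractions quantified by Bradford; bound fraction = (mi−mft)/mi, yield = me/mi.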

The test system of data set [3] is Palivizumab. The data set can be described thus: Microtiter plate chromatography of resins: binding and elution of Palivizumab. To be noted: fraction of injected protein bound; 0.5 mg/ml IgG in PBS pH 7.3. The method, boiled down: as §1
The test system of data set [4] is Cetuximab. The data set can be described thus: Microtiter plate chromatography of resins: binding and elution of Cetuximab. The following applies: fraction of injected protein bound; 0.5 mg/ml IgG in PBS pH 7.3. The method, boiled down:
as §1

Data set [5] concerns poly-IgG from human serum (h-poly-IgG). The data set can be described thus: Microtiter plate chromatography of resins: binding and elution of human poly-IgG. To be noted: fraction of injected protein bound; 0.5 mg/ml IgG in PBS pH 7.3. An outline of the steps: as §1
The subject of data set [6] is host cell proteins (HCP). The data set can be described thus: Microtiter plate chromatography of resins: binding of host cell proteins. Set-up: species or system CHO cell culture. To be noted: fraction of injected undiluted host cell proteins bound. An outline of the steps:
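Undiluted HCP-containing flowthrough from protein A chromatography of CHO serum-free culture was loaded onto ~30 µl packed resin columns in microtiter-plate format. Columns were washed with 5 cv PBS and eluted with glycine pH 2.5, and fractions were quantified by Bradford. Bound fraction = (injected − flowthrough mass)/injected mass.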

The target in data set [7] is T1, Bevacizumab. The experiment in a line: Langmuir isotherms by batch adsorption. The following applies: mg Bevacizumab per ml of resin; Langmuir isotherm. It is filed as binding.
For data set [8], the target named is T1, Bevacizumab. The data set can be described thus: Uptake kinetics by batch adsorption (time-scale of binding). To be noted: time after which 80% of equilibrium saturation occurred; 0.75 mg/ml Bevacizumab in PBS, 25° C.
Data set [9] deals with T1, Bevacizumab. The data set can be described thus: Dynamic binding capacity by column chromatography. As to the method:
Dynamic binding capacities were determined by column chromatography with purified Bevacizumab. Resins were packed into analytical columns of 25 mm length and 3 mm inner diameter. Columns were fed with 1 mg/ml antibody in phosphate-buffered saline (150 mM NaCl, 20 mM phosphate buffer, pH 7.3) at a flow rate of 50 cm/h (3 min column residence time), while the concentration of antibody in effluents was monitored online via absorbance at 280 nm. Antibody was loaded until complete breakthrough of the feed. Dynamic binding capacities were determined at the 10% breakthrough. Equilibrium capacities were determined by integration of the area above the breakthrough curve. Bound antibody was stripped from columns by elution with glycine at pH 3.0.
It was calculated as the time t0.1 after which 10% breakthrough occurred, multiplied by the flow rate F and feed concentration cf. dynamiccapacity=t0.1·F·cf
Equilibrium capacity is defined as the maximum amount of antibody that binds to a column for a given feed stream concentration. It was calculated by evaluation of the following integral
[formula] containing the feed concentration cf, effluent concentration over time c(t) and flow rate F. The integral was evaluated numerically. Integration was limited to the time after which complete breakthrough had occurred. […]

A short description of data set [10]: Alkaline stability of ligands in 0.5 M sodium hydroxide. It is filed as physicochemical. To be noted: 25° C., 8 days, hydrolysis monitored by LC-MS, read-out: t0.5 (half-life) (converted). The method, then:
A subset of ligands from Example 1 was tested for its alkaline stability. Ligands were treated with 0.5 M sodium hydroxide at 25° C. for 8 days. Hydrolysis was monitored by LC-MS analysis.

As usually defined, the half-life is how long it takes for the measured level to halve. `NCCCn1cnc2cc(C(=O)Nc3nnc(-c4ccco4)s3)ccc21` [Ligand L05, 1-(3-Amino-1-propyl)benzimidazole-5-carboxylic acid N-[5-(2-furyl)-1,3,4-thiadiazol-2-yl]amide]: in data set [1] (fraction of injected protein bound, 0.5 mg/ml IgG in PBS pH 7.3, ligand immobilized on SEPHAROSE 4 FF), the “Bevacizumab Bound” value was determined as 100%. The “Bevacizumab Yield” value in data set [1] (mass eluted (glycine pH 2.5) / mass injected) amounted to 101%. Moreover, in [2], the “Tocilizumab Bound” value is listed as 100%. Also, the “Palivizumab Bound” value in [3] amounted to 100%. Besides, in data set [4], the “Cetuximab Bound” value is on record as 100%. For the same molecule, the “h-poly-IgG Bound” value in data set [5] was 100%. Further, in data set [6], the “HCP Bound” value is 17%. Further, the “qm (maximum capacity)” value in data set [7] worked out at 47 mg/mL. The “t0.8 (time-scale of binding)” value in [8] came out at 9.8 min. For the same molecule, in [9] (10% breakthrough, 1 mg/ml Bevacizumab, 50 cm/h (3 min residence time)), the “Dynamic Capacity” value is 25 mg/mL. Also, the “Equilibrium Capacity” value in [9] (feed concentration 1 mg/ml Bevacizumab, integration above breakthrough curve) is 39 mg/mL. Further, in data set [10], the half-life was greater than 41.6 days.
